Source: patent publication US20060057559A1, “High-throughput cell migration screening assay” (Rigel Pharmaceuticals, Inc., priority 2004, published 2006)
“Also recorded” adds a separate entry of the source. Where a name gives a salt, the structure may show the parent alone.

Columns and labels:
EDG1 = biological target: T1, EDG1 (Homo sapiens, UniProt P21453); assay: Migration assay employing EDG1 as a migration molecule (T lymphoid cells overexpressing EDG1 migrating toward S1P, 96-well, CyQuant GR fluorescence); assay type: cell-based; conditions: migration in response to S1P, hydrochloride
T1 construct: expressed in transfected cells; host or cells: T lymphoid cell line (Jurkat, EDG1 #15 clone), retroviral TIM EDG1 vector, tetracycline-regulated
T1 sequence (P21453 whole entry): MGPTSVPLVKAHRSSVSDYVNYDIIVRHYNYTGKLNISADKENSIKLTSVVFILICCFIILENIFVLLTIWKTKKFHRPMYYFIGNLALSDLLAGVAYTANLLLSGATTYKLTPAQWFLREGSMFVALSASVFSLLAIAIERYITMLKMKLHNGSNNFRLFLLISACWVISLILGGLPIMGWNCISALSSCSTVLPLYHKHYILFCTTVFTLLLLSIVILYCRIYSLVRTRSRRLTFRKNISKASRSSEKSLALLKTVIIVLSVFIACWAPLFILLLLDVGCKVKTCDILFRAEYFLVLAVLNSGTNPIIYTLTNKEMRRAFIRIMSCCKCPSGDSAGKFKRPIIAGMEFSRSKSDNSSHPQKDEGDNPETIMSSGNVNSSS
Procedure: (§1) Both cell lines were used to optimize assay parameters in order to maximize accuracy and throughput in an automated 96-well format. Compounds were added together with S1P in bottom receiver plate; lipid starved cells were placed in the upper filter plate. The T cell migration may be finished in 2 to 4 hours. The cells which migrated to the receiver plate were stained with a fluorescence dye (CyQuant GR™) and detected by a fluorescence plate reader.
On day one, EDG1 expressing cells were grown at 0.4 millions/ml in RPMI 1640 containing 10% lipid-free serum (Charcoal-Dextran-Stripped Fetal Bovine Serum, Cat# 100-502 (Gemini Bioproducts™)) for 24 hours. EDG1 cells are maintained below 1 million/ml at all times. On the next day, cells were spun down, washed once with serum-free medium and re-suspended in RPMI 1640 containing 0.1% BSA (fat-free, cell culture tested) (Cat# A8806 (SIGMA ALDRICH FLUKA CHEMICALS™)) at a density of 6×10^6 per ml. 170 μl RPMI 1640 (0.1% BSA) containing 20 nM S1P (Cat# SL-140 (BioMol™)) and/or desired drugs were added to the receiver plate of […] Millipore Multiscreen MIC™ plates (Cat# MAMI C3S 10, 3 um pore size (Millipore™)) and the filter plates were carefully placed over the receiver plate. […] After 30 min agitating at RT, the plate was read in a fluorescence plate reader using 480/520 nm filter set.

EDG3 = biological target: T2, EDG3 (Homo sapiens, UniProt Q99500); assay: Migration assay employing EDG3 as a migration molecule (T lymphoid cells overexpressing EDG3 migrating toward S1P, 96-well, CyQuant GR fluorescence); assay type: cell-based
T2 construct: expressed in transfected cells; host or cells: T lymphoid cell line (Jurkat, EDG3 #1 clone), pNIGEDG3 vector, constitutive expression
T2 sequence (Q99500 whole entry): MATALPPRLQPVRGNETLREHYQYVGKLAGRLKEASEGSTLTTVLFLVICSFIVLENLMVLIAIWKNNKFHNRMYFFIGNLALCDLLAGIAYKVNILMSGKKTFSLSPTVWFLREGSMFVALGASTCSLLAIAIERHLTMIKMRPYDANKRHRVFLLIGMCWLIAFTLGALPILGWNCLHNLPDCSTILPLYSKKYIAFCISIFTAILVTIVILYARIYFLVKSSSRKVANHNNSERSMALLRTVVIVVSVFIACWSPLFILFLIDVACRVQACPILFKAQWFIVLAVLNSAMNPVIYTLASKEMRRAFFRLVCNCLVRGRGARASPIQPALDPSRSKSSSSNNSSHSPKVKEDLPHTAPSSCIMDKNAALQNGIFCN
Procedure: as §1
On day one, EDG3 expressing cells were grown at 0.8 millions/ml in RPMI 1640 containing 10% lipid-free serum (Charcoal-Dextran-Stripped Fetal Bovine Serum, Cat# 100-502 (Gemini Bioproducts™)) for 24 hours. EDG3 cells are maintained below 3 million/ml at all times. On the next day, cells were spun down, washed once with serum-free medium and re-suspended in RPMI 1640 containing 0.1% BSA (fat-free, cell culture tested) (Cat# A8806 (SIGMA ALDRICH FLUKA CHEMICALS™)) at a density of 8×10^6 per ml. 170 μl RPMI 1640 (0.1% BSA) containing 60 nM S1P (Cat# SL-140 (BiOMOl™)) and/or desired drugs were added to the receiver plate of […] Millipore Multiscreen MIC plates (Cat# MAMI C3S 10, 3 um pore size (Millipore™)) and the filter plates were carefully placed over the receiver plate. […] After 30 min agitating at RT, the plate was read in a fluorescence plate reader using 480/520 nm filter set.

| Structure (SMILES) | inhibition of migration of EDG1 #15 clone (EDG1) | differential inhibition of EDG1 and EDG3 migration (EDG3; EDG1 versus EDG3 clones, FIG. 10B) | inhibition of migration of EDG3 #1 clone (EDG3; EDG3-overexpressing T lymphoid cells, migration in response to S1P) |
| --- | --- | --- | --- |
| CCCCCCCCc1ccc(CCC(N)(CO)CO)cc1 [FTY720, 2-amino-2(2-[4-octylphenylethyl)-1,3-propanediol hydrochloride] | inhibition of migration; also recorded: specifically inhibit; also recorded: inhibits the migration of EDG1#15 clone |  |  |
| Cc1ccc(C(=O)Nc2ccc(S(=O)(=O)O)c3cc(S(=O)(=O)O)cc(S(=O)(=O)O)c23)cc1NC(=O)c1cccc(NC(=O)Nc2cccc(C(=O)Nc3cc(C(=O)Nc4ccc(S(=O)(=O)O)c5cc(S(=O)(=O)O)cc(S(=O)(=O)O)c45)ccc3C)c2)c1 [suramin] |  | differential inhibition of EDG1 and EDG3 migration | specifically inhibit; also recorded: inhibition of EDG3 #1 clone migration |
